One data set deals with T1, SF9 affinity purified rat FPT (Rattus norvegicus, UniProt Q02293+Q04631).
T1 construct: made in house; host or cells: Sf9 insect cells
Kind of data set: PFT (FPT) inhibitory activity assay, radiolabeled farnesyl pyrophosphate and biotinyl peptide, streptavidin beads. In kind it is biochemical. The following applies: HEPES buffer pH 7.4, 30° C., 30 minutes; read-out: FTase IC50. The essentials:
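Rat FPT expressed in SF9 cells was incubated 30 minutes at 30° C. with compound (in 10% DMSO), radiolabeled farnesyl pyrophosphate and biotinylated peptide. Buffer: HEPES pH 7.4, ZnCl2 20 μM, MgCl2 and DTT 5 mM each, 0.1% PEG 8000, 5 mM potassium phosphate (also run without phosphate). Product captured on streptavidin beads in magnesium acetate/H3PO4 stop buffer.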
One may read the IC50 as the concentration that gives 50% inhibition. In the case of `Nc1nccn1CC(Oc1ccc2c(c1CCc1ccccc1)CCCC2=O)c1ccccc1` (stereo not shown) [Compound 63r, 6-[2-(2-Amino-imidazol-1-yl)-1-phenyl-ethoxy]-5-phenethyl-3,4-dihydro-2H-naphthalen-1-one], the IC50 worked out at 35 nM.
Take `CC[C@H](CO)NC(=O)c1cccc(SCc2c(O[C@H](Cn3ccnc3)c3ccccc3)ccc3c2CCCC3=O)c1` [Compound 246, N-[(1R)-1-(Hydroxymethyl)propyl]-3-{[(2-{[(1S)-2-(1H-imidazol-1-yl)-1-phenylethyl]oxy}-5-oxo-5,6,7,8-tetrahydro-1-naphthalenyl)methyl]sulfanyl}benzamide]: the half-inhibitory concentration (IC50) was 0.2 nM.
In the case of `CC[C@H](C)CNC(=O)c1ccc(S(=O)(=O)Cc2c(O[C@H](Cn3ccnc3)c3ccccc3)ccc3c2CCCC3=O)cc1` [Compound 247, 4-{[(2-{[(1S)-2-(1H-Imidazol-1-yl)-1-phenylethyl]oxy}-5-oxo-5,6,7,8-tetrahydro-1-naphthalenyl)methyl]sulfonyl}-N-[(2S)-2-methylbutyl]benzamide], the IC50 was determined as 0.2 nM.
As for `CC[C@H](C)CNC(=O)c1cccc(S(=O)(=O)Cc2c(O[C@H](Cn3ccnc3)c3ccccc3)ccc3c2CCCC3=O)c1` [Compound 248], the IC50 is 0.2 nM.
Turning to `CC[C@H](C)CNC(=O)c1ccccc1S(=O)(=O)Cc1c(O[C@H](Cn2ccnc2)c2ccccc2)ccc2c1CCCC2=O` [Compound 249], the IC50 amounted to 0.25 nM.
Take `CC[C@H](C)CNC(=O)c1ccccc1SCc1c(O[C@H](Cn2ccnc2)c2ccccc2)ccc2c1CCCC2=O` [Compound 250, 2-{[(2-{[(1S)-2-(1H-Imidazol-1-yl)-1-phenylethyl]oxy}-5-oxo-5,6,7,8-tetrahydro-1-naphthalenyl)methyl]sulfanyl}-N-[(2S)-2-1-methylbutyl]benzamide]: the IC50 was determined as 0.2 nM.
Take `CC[C@H](C)CNC(=O)c1ccc(SCc2c(O[C@H](Cn3ccnc3)c3ccccc3)ccc3c2CCCC3=O)cc1` [Compound 251, 4-{[(2-{[(1S)-2-(1H-Imidazol-1-yl)-1-phenylethyl]oxy}-5-oxo-5,6,7,8-tetrahydro-1-naphthalenyl)methyl]sulfanyl}-N-[(2S)-2-methylbutyl]benzamide]: the half-maximal inhibitory concentration (IC50) worked out at 0.2 nM.
For the molecule `CC[C@H](C)CNC(=O)c1cccc(SCc2c(O[C@H](Cn3ccnc3)c3ccccc3)ccc3c2CCCC3=O)c1` [Compound 252, 3-{[(2-{[(1S)-2-(1H-Imidazol-1-yl)-1-phenylethyl]oxy}-5-oxo-5,6,7,8-tetrahydro-1-naphthalenyl)methyl]sulfanyl}-N-[(2S)-2-methylbutyl]benzamide], the half-maximal inhibitory concentration (IC50) was 0.2 nM.
For the molecule `CC(O)CNC(=O)c1ccc(S(=O)(=O)Cc2c(O[C@H](Cn3ccnc3)c3ccccc3)ccc3c2CCCC3=O)cc1` (stereo partly drawn) [Compound 253, N-(2-Hydroxypropyl)-4-{[(2-{[(1S)-2-(1H-imidazol-1-yl)-1-phenylethyl]oxy}-5-oxo-5,6,7,8-tetrahydro-1-naphthalenyl)methyl]sulfonyl}benzamide], the half-maximal inhibitory concentration (IC50) was determined as 0.7 nM.
Consider `CC(O)CNC(=O)c1cccc(S(=O)(=O)Cc2c(O[C@H](Cn3ccnc3)c3ccccc3)ccc3c2CCCC3=O)c1` (stereo partly drawn) [Compound 254, N-(2-Hydroxypropyl)-3-{[(2-{[(1S)-2-(1H-imidazol-1-yl)-1-phenylethyl]oxy}-5-oxo-5,6,7,8-tetrahydro-1-naphthalenyl)methyl]sulfonyl}benzamide], for which the half-inhibitory concentration (IC50) came to 1 nM.
As to `CC(O)CNC(=O)c1ccccc1S(=O)(=O)Cc1c(O[C@H](Cn2ccnc2)c2ccccc2)ccc2c1CCCC2=O` (stereo partly shown) [Compound 255], the concentration for half-maximal inhibition (IC50) stood at 0.2 nM.
Regarding `CC(O)CNC(=O)c1ccc(SCc2c(O[C@H](Cn3ccnc3)c3ccccc3)ccc3c2CCCC3=O)cc1` (stereo partly drawn) [Compound 256, N-(2-Hydroxypropyl)-4-{[(2-{[(1S)-2-(1H-imidazol-1-yl)-1-phenylethyl]oxy}-5-oxo-5,6,7,8-tetrahydro-1-naphthalenyl)methyl]sulfanyl}benzamide], the concentration for half-maximal inhibition (IC50) is 0.2 nM.
Turning to `CC(O)CNC(=O)c1ccccc1SCc1c(O[C@H](Cn2ccnc2)c2ccccc2)ccc2c1CCCC2=O` (stereo partly drawn) [Compound 257, N-(2-Hydroxypropyl)-2-{[(2-{[(1S)-2-(1H-imidazol-1-yl)-1-phenylethyl]oxy}-5-oxo-5,6,7,8-tetrahydro-1-naphthalenyl)methyl]sulfanyl}benzamide], the half-maximal inhibitory concentration (IC50) was found to be 0.2 nM.
In the case of `CC(O)CNC(=O)c1cccc(SCc2c(O[C@H](Cn3ccnc3)c3ccccc3)ccc3c2CCCC3=O)c1` (stereo partly drawn) [Compound 258, N-(2-Hydroxypropyl)-3-{[(2-{[(1S)-2-(1H-imidazol-1-yl)-1-phenylethyl]oxy}-5-oxo-5,6,7,8-tetrahydro-1-naphthalenyl)methyl]sulfanyl}benzamide], the concentration for half-maximal inhibition (IC50) was found to be 0.2 nM.
With `COCCNC(=O)c1cccc(SCc2c(O[C@H](Cn3ccnc3)c3ccccc3)ccc3c2CCCC3=O)c1` [Compound 259, 3-{[(2-{[(1S)-2-(1H-Imidazol-1-yl)-1-phenylethyl]oxy}-5-oxo-5,6,7,8-tetrahydro-1-naphthalenyl)methyl]sulfanyl}-N-(2-methoxyethyl)benzamide], the half-maximal inhibitory concentration (IC50) worked out at 0.2 nM.
Take `COCCNC(=O)c1ccccc1SCc1c(O[C@H](Cn2ccnc2)c2ccccc2)ccc2c1CCCC2=O` [Compound 260, 2-{[(2-{[(1S)-2-(1H-Imidazol-1-yl)-1-phenylethyl]oxy}-5-oxo-5,6,7,8-tetrahydro-1-naphthalenyl)methyl]sulfanyl}-N-(2-methoxyethyl)benzamide]: the concentration for half-maximal inhibition (IC50) was 0.2 nM.
`COCCNC(=O)c1ccc(SCc2c(O[C@H](Cn3ccnc3)c3ccccc3)ccc3c2CCCC3=O)cc1` [Compound 261]: the IC50 was found to be 0.2 nM.
Turning to `COCCNC(=O)c1cccc(S(=O)(=O)Cc2c(O[C@H](Cn3ccnc3)c3ccccc3)ccc3c2CCCC3=O)c1` [Compound 263, 3-{[(2-{[(1S)-2-(1H-Inimidazol-1-yl)-1-phenylethyl]oxy}-5-oxo-5,6,7,8-tetrahydro-1-naphthalenyl)methyl]sulfonyl}-N-(2-methoxyethyl)benzamide], the IC50 worked out at 0.2 nM.
As to `COCCNC(=O)c1ccccc1S(=O)(=O)Cc1c(O[C@H](Cn2ccnc2)c2ccccc2)ccc2c1CCCC2=O` [Compound 264, 2-{[(2-{[(1S)-2-(1H-Imidazol-1-yl)-1-phenylethyl]oxy}-5-oxo-5,6,7,8-tetrahydro-1-naphthalenyl)-methyl]sulfonyl}-N-(2-methoxyethyl)benzamide], the IC50 is 0.2 nM.

Test system in the next data set: not given
Experiment: not given
Details: not given
What is called melting point is the temperature, or range, at which the solid turns liquid. Consider `Nc1nccn1CC(Oc1ccc2c(c1CCc1ccccc1)CCCC2=O)c1ccccc1` (stereo not shown) [Compound 63r, 6-[2-(2-Amino-imidazol-1-yl)-1-phenyl-ethoxy]-5-phenethyl-3,4-dihydro-2H-naphthalen-1-one], for which the melting point was in the range of 185 to 188 °C.

A further data set has as its system human colon carcinoma xenografts.
Experiment: not given
The conditions noted are these: 100 mg/kg, xenograft in nude mice; cited from earlier work.
Regarding `COC(=O)[C@H](CCSC)NC(=O)[C@H](/C=C\[C@@H](/C=C/[C@@H](N)CS)C(C)C)Cc1ccccc1` [Compound B1086], the “inhibition of tumor growth” value was “inhibit tumor growth”.

Another data set concerns EJ-1 human bladder carcinoma.
Experiment: not given
The following applies: 100 mg/kg, xenograft in nude mice; cited from earlier work.
Consider `COC(=O)[C@H](CCSC)NC(=O)[C@H](/C=C\[C@@H](/C=C/[C@@H](N)CS)C(C)C)Cc1ccccc1` [Compound B1086], for which the “inhibition of tumor growth” value is on record as “inhibit tumor growth”.

In a further data set the test system is human lung carcinoma with K-ras mutation and p53 deletion.
Experiment: not given
The conditions noted are these: nude mice; cited from earlier work.
`CSCC[C@H](NC(=O)c1ccc(NC[C@@H](N)CS)cc1-c1ccccc1)C(=O)O` [FTI276]: the “block of tumor growth” value is on record as “selectively block tumor growth”.

The test system of the next data set is HT1080 human fibrosarcoma.
Experiment: not given
The following applies: 100 mg/kg, xenograft in nude mice; cited from earlier work.
With `COC(=O)[C@H](CCSC)NC(=O)[C@H](/C=C\[C@@H](/C=C/[C@@H](N)CS)C(C)C)Cc1ccccc1` [Compound B1086], the “inhibition of tumor growth” value is reported as “inhibit tumor growth”.

The subject of the next data set is mammary and salivary carcinomas.
Experiment: not given
The conditions noted are these: daily administration, ras transgenic mice; cited from earlier work.
For the molecule `CC[C@H](C)[C@@H](CO[C@@H](Cc1ccccc1)C(=O)N[C@@H](CCS(C)(=O)=O)C(=O)OC(C)C)NC[C@@H](N)CS` [L-744,832], the tumor regression result was “tumor regression”.

These data come from patent publication US6943183B2 (Pfizer Inc, priority 2000, dated 2005).
